In US20100210682A1, “Repeated Dosing of TRPV1 Antagonists” (ABBOTT LABORATORIES, priority 2009, published 2010):
In brackets after ≈: the same amount, converted by molar mass. Like-named read-outs stand apart in the source and are kept apart here. Marks after values point to notes of the source that are not given here.

Experiments:
[1] = tested on: MIA-induced osteoarthritic rats; assay: Osteoarthritic pain model in rats (MIA), hind limb grip force; assay type: in vivo, rat; conditions: for ED50: po, p.o., acute dosing
Experimental: Unilateral knee joint osteoarthritis was induced in the rats by a single intraarticular (i.a.) injection of sodium monoiodoacetate (MIA) (Sigma, St. Louis, Mo.) (3 mg in 0.05 mL sterile isotonic saline) into the joint cavity using a 26 G needle under light (2-4%) halothane (Halocarbon Laboratories, River Edge, N.J.) anesthesia [Bove S E, Calcaterra S L, Brooker R M, Huber C M, Guzman R E, Juneau P L, et al. Weight bearing as a measure of disease progression and efficacy of anti-inflammatory compounds in a model of monosodium iodoacetate-induced osteoarthritis. Osteoarthritis Cartilage 2003; 11:821-30]. Following injection, the animals were allowed to recover from the effects of anesthesia (usually 5-10 min) before returning them to their home cages.
MIA-induced nociception can be assessed by measuring differences in weight bearing (WBD) or decrease in grip force (GF) several days to weeks following MIA injection [Bove S E, Calcaterra S L, Brooker R M, Huber C M, Guzman R E, Juneau P L, et al. Weight bearing as a measure of disease progression and efficacy of anti-inflammatory compounds in a model of monosodium iodoacetate-induced osteoarthritis. Osteoarthritis Cartilage 2003; 11:821-30; Fernihough J, Gentry C, Malcangio M, Fox A, Rediske J, Pellas T, et al. Pain related behaviour in two models of osteoarthritis in the rat knee. Pain 2004; 112:83-93].
In addition to weight-bearing differences, grip strength was also assessed in osteoarthritic rats approximately 21 days after MIA injection. Measurements of peak hind limb grip force were conducted by recording the maximum compressive force exerted on the hind limb strain gauge setup, in a commercially available grip force measurement system (Columbus Instruments, Columbus, Ohio). During testing, each rat was gently restrained by grasping around its rib cage and then allowed to grasp the wire mesh frame (10-12 cm^2) attached to the strain gauge. The experimenter then moved the animal in a rostral-to-caudal direction until the grip was broken. Each rat was sequentially tested twice at an approximately 2 min interval to obtain a raw mean grip force […]. These raw mean grip force data were in turn converted to a maximum hind limb compressive force (CFmax) (gram force)/kg body weight for each animal. A group of age-matched naïve animals was added to each experiment and the data obtained from the different dose groups for the compound being tested were compared to the naïve group.
(§1) Compound A was dissolved in 100% polyethylene glycol (PEG 400) for oral administration in a 2 mL/kg injection volume. Compounds B, C, and D were dissolved in 10% ethanol, 20% Tween 80 and 70% polyethylene glycol-400 for oral administration in a 2 mL/kg injection volume. All compounds were dosed orally (p.o.) 60 minutes before behavioral testing.
(§2) In the osteoarthritic pain model, animals were dosed twice-daily for 12 days using a dose that was non-efficacious following a single administration (e.g. 3 μmol/kg p.o. for Compound A). The animals were tested 1 hour after acute dosing (p.o.) and on day 12, 1 hour after oral dosing with either vehicle or the test compound.
The analgesic responses were shown as % effect relative to the healthy, untreated rats (naïve group).

[2] = Plasma levels in osteoarthritic rats after acute and repeated dosing; assay type: in vivo, rat; conditions: derived from modeling of PK/PD data from acute and chronic dosing studies
Experimental: as §2

[3] = tested on: bone cancer pain, C3H/HeJ mice; assay: Bone cancer pain model in mice (2472 sarcoma); assay type: in vivo; conditions: mouse
Experimental: Male Sprague-Dawley rats (Charles River, Wilmington, Mass.) weighing 200-300 grams were utilized in most experiments. Animals were group housed in AAALAC approved facilities at Abbott Laboratories in a temperature-regulated environment with lights on between 0700 and 2000 h. Food and water were available ad libitum except during testing. All animal handling and experimental protocols were approved by an Institutional Animal Care and Use Committee (IACUC). All experiments were performed during the light cycle. The bone cancer pain experiments were performed on adult male C3H/HeJ mice (Jackson Laboratories, Bar Harbor, Me.), approximately 7-8 weeks old, weighing 25-30 g at the time of tumor cell injection. The mice were housed in accordance with National Institutes of Health Guidelines and kept in a vivarium maintained at 22° C. with a 12 h alternating light-dark cycle. They were given food and water ad libitum except during testing. All procedures were approved by the Institutional Animal Care and Use Committee at the University of Minnesota. All procedures also adhered to the guidelines of the Committee for Research and Ethical Issues of IASP published in PAIN, 16 (1983) 109-110.
An arthrotomy was performed following induction of general anesthesia with sodium pentobarbital (50 mg/kg, intraperitoneal (i.p.)). A needle was inserted into the intramedullary canal to create a pathway for the sarcoma cells. A depression was then made using a pneumatic dental high-speed hand-piece. Mice were injected with Hanks-buffered saline (HBSS) (20 μL, Sigma, St. Louis, Mo.) or HBSS containing the 2472 sarcoma line (ATCC, Rockville, Md., USA). The injection site was sealed with a dental amalgam plug to confine the cells within the intramedullary canal followed by irrigation with sterile water. […] Clips were removed at day 5 so as not to interfere with behavioral testing.
A variety of behavioral measurements was used to assess the extent of bone cancer pain as described previously [Schwei M J, Honore P, Rogers S D, Salak-Johnson J L, Finke M P, Ramnaraine M L, et al. Neurochemical and cellular reorganization of the spinal cord in a murine model of bone cancer pain. J Neurosci 1999; 19:10886-97]. All mice were tested and values obtained for behavioral responses before compound or vehicle administration, and then retested 1 hour following oral dosing. Percent effects were calculated as follows: (1−((Compound Value−Sham Value)/(Vehicle Value−Sham Value)))×100. The number of spontaneous guarding behaviors, representative of nociceptive behavior, was recorded during a 2 min observation period. Guarding was defined as the amount of time an animal held the hind paw aloft while not ambulatory. Mechanical allodynia at the knee joint was evaluated by normally non-noxious palpation of the distal femur every second for 2 min. Following the 2 min palpation, the mice were placed in the observation box and their palpation-induced guarding behavior was measured for an additional 2 min. Normal limb use during spontaneous ambulation in an open field was scored on a scale of 5-0: (5) normal use, (4) some limping, but not pronounced, (3) pronounced limp, (2) limp and guarding behavior, (1) partial non-use of limb, and (0) complete lack of limb use.
as §1

[4] = 30 μmol/kg p.o., acute dosing, fifteen days following tumor cells inoculation

Plasma Levels, Chronic ([2]; 3 μmol/kg BID 12 days): 17** at 3 μmol/kg ng/mL
EC50 ([2]; Rattus norvegicus, osteoarthritic rats): 0.085 µg/mL (≈ 0.244 µM)
SMILES: CC(C)(C)c1ccc2c(c1)CC[C@H]2NC(=O)Nc1cccc2[nH]ncc12 [Compound A, N-[(1R)-5-tert-butyl-2,3-dihydro-1H-inden-1-yl]-N′-1H-indazol-4-ylurea]
ED50 ([1]; Rattus norvegicus, grip force, MIA-induced osteoarthritic rats, read-out: Acute ED50 (μmol/kg; 95% Cl)): 8 µmol/kg
% Efficacy at Reduced Dose, Chronic (BID, 12 days) ([1]; grip force, 3 μmol/kg p.o. BID 12 days, relative to naïve group): 62%
% Efficacy at Reduced Dose, Acute ([1]; grip force, 3 μmol/kg p.o., 1 hour after acute dosing, relative to naïve group): 20%
analgesic effects following repeated dosing vs acute dosing ([1]; grip force, BID 12 days, reduced dose): significantly increased
ED50 ([1]; 480 h, rat, 20 days following MIA injection, read-out: ED50, reversal of decrease in grip force): 10 µmol/kg
reversal of spontaneous guarding ([3]; 10 μmol/kg p.o. twice-daily for 9 days): 45±3%
reversal of evoked pain induced by palpation of the cancerous limb (% effects) ([3]; 30 μmol/kg p.o., acute dosing): 65±4%
reversal of spontaneous guarding [3, 4]: 70±1%
reversal of the pain-induced decrease in ambulation [3, 4]: 85±15%
evoked pain induced by palpation of the cancerous limb, repeated vs single dosing ([3]; repeated dosing): Improved analgesic efficacy
effect on spontaneous ambulation ([3]; repeated dosing (10 μmol/kg p.o. twice-daily for 9 days)): 43±0%
analgesic effect on spontaneous ambulation ([3]; single dose 10 μmol/kg p.o.): 19±0%
analgesic effect on spontaneous guarding ([3]; single dose 10 μmol/kg p.o.): 18±6%
